PMC11845477, “Exploring the principles behind antibiotics with limited resistance” (Nature Communications, 2025)

Columns and labels:
[1] = test system: A. baumannii ATCC 17978 (SEN) and A. baumannii ATCC BAA-1605 (MDR); experiment: Adaptive laboratory evolution (ALE), relative MIC of evolved lines; type: cell-based, Acinetobacter baumannii
In short: (§1)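 Ten parallel populations per antibiotic–ancestor pair were evolved in MHB at 37 °C, starting near 50% growth-inhibiting drug. Every 72 h they were passaged into 0.5–2.5× increasing concentrations, keeping the highest-drug well with OD600 > 0.2.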

[2] = test system: K. pneumoniae ATCC 10031 (SEN) and K. pneumoniae ATCC 700603 (MDR); experiment: as above; type: cell-based, Klebsiella pneumoniae
In short: as §1

C[C@@H](O)[C@H]1C(=O)N2C(C(=O)O)=C(S[C@H]3CC[S@@+]([O-])C3)S[C@H]12 [Sulopenem]
MIC of evolved line ([1]; AB-SEN (A. baumannii ATCC 17978), evolved line 1 of the given antibiotic): 8 µg/mL
Relative MIC ([1]; AB-SEN (A. baumannii ATCC 17978), evolved line 1 vs ancestor): 8
MIC of evolved line ([1]; AB-SEN (A. baumannii ATCC 17978), evolved line 2 of the given antibiotic): 1 µg/mL
Relative MIC ([1]; AB-SEN (A. baumannii ATCC 17978), evolved line 2 vs ancestor): 1
MIC of evolved line ([1]; AB-SEN (A. baumannii ATCC 17978), evolved line 3 of the given antibiotic): 16 µg/mL
Relative MIC ([1]; AB-SEN (A. baumannii ATCC 17978), evolved line 3 vs ancestor): 16
MIC of evolved line ([1]; AB-SEN (A. baumannii ATCC 17978), evolved line 4 of the given antibiotic): 16 µg/mL
Relative MIC ([1]; AB-SEN (A. baumannii ATCC 17978), evolved line 4 vs ancestor): 16
MIC of evolved line ([1]; AB-SEN (A. baumannii ATCC 17978), evolved line 5 of the given antibiotic): 64 µg/mL
Relative MIC ([1]; AB-SEN (A. baumannii ATCC 17978), evolved line 5 vs ancestor): 64
MIC of evolved line ([1]; AB-SEN (A. baumannii ATCC 17978), evolved line 6 of the given antibiotic): 16 µg/mL
Relative MIC ([1]; AB-SEN (A. baumannii ATCC 17978), evolved line 6 vs ancestor): 16
MIC of evolved line ([1]; AB-SEN (A. baumannii ATCC 17978), evolved line 7 of the given antibiotic): 16 µg/mL
Relative MIC ([1]; AB-SEN (A. baumannii ATCC 17978), evolved line 7 vs ancestor): 16
MIC of evolved line ([1]; AB-SEN (A. baumannii ATCC 17978), evolved line 8 of the given antibiotic): 8 µg/mL
Relative MIC ([1]; AB-SEN (A. baumannii ATCC 17978), evolved line 8 vs ancestor): 8
MIC of evolved line ([1]; AB-SEN (A. baumannii ATCC 17978), evolved line 9 of the given antibiotic): 16 µg/mL
Relative MIC ([1]; AB-SEN (A. baumannii ATCC 17978), evolved line 9 vs ancestor): 16
Relative MIC (log10) ([1]; AB-SEN (Acinetobacter baumannii ATCC 17978), evolved line 1): 0.9031 log10
Relative MIC (log10) ([1]; AB-SEN (Acinetobacter baumannii ATCC 17978), evolved line 3): 1.204 log10
Relative MIC (log10) ([1]; AB-SEN (Acinetobacter baumannii ATCC 17978), evolved line 5): 1.806 log10
Relative MIC (log10) ([1]; AB-SEN (Acinetobacter baumannii ATCC 17978), evolved line 9): 1.204 log10
Relative MIC (log10) ([1]; AB-SEN, Acinetobacter baumannii ATCC 17978, evolved line 7): 1.204 log10
Relative MIC ([1]; Acinetobacter baumannii ATCC 17978 (AB-SEN), evolved line 1): 8
Relative MIC ([1]; Acinetobacter baumannii ATCC 17978 (AB-SEN), evolved line 2): 1
Relative MIC ([1]; Acinetobacter baumannii ATCC 17978 (AB-SEN), evolved line 3): 16
Relative MIC ([1]; Acinetobacter baumannii ATCC 17978 (AB-SEN), evolved line 4): 16
Relative MIC ([1]; Acinetobacter baumannii ATCC 17978 (AB-SEN), evolved line 5): 64
Relative MIC ([1]; Acinetobacter baumannii ATCC 17978 (AB-SEN), evolved line 6): 16
Relative MIC ([1]; Acinetobacter baumannii ATCC 17978 (AB-SEN), evolved line 7): 16
Relative MIC ([1]; Acinetobacter baumannii ATCC 17978 (AB-SEN), evolved line 8): 8
Relative MIC ([1]; Acinetobacter baumannii ATCC 17978 (AB-SEN), evolved line 9): 16
MIC of evolved line ([2]; KP-MDR (K. pneumoniae ATCC 700603), evolved line 1 of the given antibiotic): 128 µg/mL
Relative MIC ([2]; KP-MDR (K. pneumoniae ATCC 700603), evolved line 1 vs ancestor): 256
MIC of evolved line ([2]; KP-MDR (K. pneumoniae ATCC 700603), evolved line 3 of the given antibiotic): 128 µg/mL
Relative MIC ([2]; KP-MDR (K. pneumoniae ATCC 700603), evolved line 3 vs ancestor): 256
MIC of evolved line ([2]; KP-MDR (K. pneumoniae ATCC 700603), evolved line 4 of the given antibiotic): 128 µg/mL
Relative MIC ([2]; KP-MDR (K. pneumoniae ATCC 700603), evolved line 4 vs ancestor): 256
MIC of evolved line ([2]; KP-MDR (K. pneumoniae ATCC 700603), evolved line 5 of the given antibiotic): 128 µg/mL
Relative MIC ([2]; KP-MDR (K. pneumoniae ATCC 700603), evolved line 5 vs ancestor): 256
MIC of evolved line ([2]; KP-MDR (K. pneumoniae ATCC 700603), evolved line 8 of the given antibiotic): 128 µg/mL
Relative MIC ([2]; KP-MDR (K. pneumoniae ATCC 700603), evolved line 8 vs ancestor): 256
MIC of evolved line ([2]; KP-MDR (K. pneumoniae ATCC 700603), evolved line 9 of the given antibiotic): 128 µg/mL
Relative MIC ([2]; KP-MDR (K. pneumoniae ATCC 700603), evolved line 9 vs ancestor): 256
MIC of evolved line ([2]; KP-MDR (K. pneumoniae ATCC 700603), evolved line 10 of the given antibiotic): 128 µg/mL
Relative MIC ([2]; KP-MDR (K. pneumoniae ATCC 700603), evolved line 10 vs ancestor): 256
Relative MIC (log10) ([2]; KP-MDR (Klebsiella pneumoniae ATCC 700603), evolved line 1): 2.408 log10
Relative MIC (log10) ([2]; KP-MDR (Klebsiella pneumoniae ATCC 700603), evolved line 3): 2.408 log10
Relative MIC (log10) ([2]; KP-MDR (Klebsiella pneumoniae ATCC 700603), evolved line 4): 2.408 log10
Relative MIC (log10) ([2]; KP-MDR (Klebsiella pneumoniae ATCC 700603), evolved line 8): 2.408 log10
Relative MIC (log10) ([2]; KP-MDR (Klebsiella pneumoniae ATCC 700603), evolved line 9): 2.408 log10
MIC of evolved line ([2]; KP-SEN (K. pneumoniae ATCC 10031), evolved line 1 of the given antibiotic): 1 µg/mL
Relative MIC ([2]; KP-SEN (K. pneumoniae ATCC 10031), evolved line 1 vs ancestor): 32
MIC of evolved line ([2]; KP-SEN (K. pneumoniae ATCC 10031), evolved line 2 of the given antibiotic): 1 µg/mL
Relative MIC ([2]; KP-SEN (K. pneumoniae ATCC 10031), evolved line 2 vs ancestor): 32
MIC of evolved line ([2]; KP-SEN (K. pneumoniae ATCC 10031), evolved line 3 of the given antibiotic): 0.25 µg/mL
Relative MIC ([2]; KP-SEN (K. pneumoniae ATCC 10031), evolved line 3 vs ancestor): 8
MIC of evolved line ([2]; KP-SEN (K. pneumoniae ATCC 10031), evolved line 4 of the given antibiotic): 0.5 µg/mL
Relative MIC ([2]; KP-SEN (K. pneumoniae ATCC 10031), evolved line 4 vs ancestor): 16
MIC of evolved line ([2]; KP-SEN (K. pneumoniae ATCC 10031), evolved line 5 of the given antibiotic): 0.5 µg/mL
Relative MIC ([2]; KP-SEN (K. pneumoniae ATCC 10031), evolved line 5 vs ancestor): 16
MIC of evolved line ([2]; KP-SEN (K. pneumoniae ATCC 10031), evolved line 6 of the given antibiotic): 1 µg/mL
Relative MIC ([2]; KP-SEN (K. pneumoniae ATCC 10031), evolved line 6 vs ancestor): 32
MIC of evolved line ([2]; KP-SEN (K. pneumoniae ATCC 10031), evolved line 8 of the given antibiotic): 1 µg/mL
Relative MIC ([2]; KP-SEN (K. pneumoniae ATCC 10031), evolved line 8 vs ancestor): 32
MIC of evolved line ([2]; KP-SEN (K. pneumoniae ATCC 10031), evolved line 9 of the given antibiotic): 0.5 µg/mL
Relative MIC ([2]; KP-SEN (K. pneumoniae ATCC 10031), evolved line 9 vs ancestor): 16
MIC of evolved line ([2]; KP-SEN (K. pneumoniae ATCC 10031), evolved line 10 of the given antibiotic): 1 µg/mL
Relative MIC ([2]; KP-SEN (K. pneumoniae ATCC 10031), evolved line 10 vs ancestor): 32
Relative MIC (log10) ([2]; KP-SEN (Klebsiella pneumoniae ATCC 10031), evolved line 1): 1.505 log10
Relative MIC (log10) ([2]; KP-SEN (Klebsiella pneumoniae ATCC 10031), evolved line 2): 1.505 log10
Relative MIC (log10) ([2]; KP-SEN (Klebsiella pneumoniae ATCC 10031), evolved line 6): 1.505 log10
Relative MIC (log10) ([2]; KP-SEN (Klebsiella pneumoniae ATCC 10031), evolved line 8): 1.505 log10
Relative MIC (log10) ([2]; KP-SEN (Klebsiella pneumoniae ATCC 10031), evolved line 10): 1.505 log10
Relative MIC ([2]; Klebsiella pneumoniae ATCC 10031 (KP-SEN), evolved line 1): 32
Relative MIC ([2]; Klebsiella pneumoniae ATCC 10031 (KP-SEN), evolved line 2): 32
Relative MIC ([2]; Klebsiella pneumoniae ATCC 10031 (KP-SEN), evolved line 3): 8
Relative MIC ([2]; Klebsiella pneumoniae ATCC 10031 (KP-SEN), evolved line 4): 16
Relative MIC ([2]; Klebsiella pneumoniae ATCC 10031 (KP-SEN), evolved line 5): 16
Relative MIC ([2]; Klebsiella pneumoniae ATCC 10031 (KP-SEN), evolved line 6): 32
Relative MIC ([2]; Klebsiella pneumoniae ATCC 10031 (KP-SEN), evolved line 8): 32
Relative MIC ([2]; Klebsiella pneumoniae ATCC 10031 (KP-SEN), evolved line 9): 16
Relative MIC ([2]; Klebsiella pneumoniae ATCC 10031 (KP-SEN), evolved line 10): 32
Relative MIC ([2]; Klebsiella pneumoniae ATCC 700603 (KP-MDR), evolved line 1): 256
Relative MIC ([2]; Klebsiella pneumoniae ATCC 700603 (KP-MDR), evolved line 3): 256
Relative MIC ([2]; Klebsiella pneumoniae ATCC 700603 (KP-MDR), evolved line 4): 256
Relative MIC ([2]; Klebsiella pneumoniae ATCC 700603 (KP-MDR), evolved line 5): 256
Relative MIC ([2]; Klebsiella pneumoniae ATCC 700603 (KP-MDR), evolved line 8): 256
Relative MIC ([2]; Klebsiella pneumoniae ATCC 700603 (KP-MDR), evolved line 9): 256
Relative MIC ([2]; Klebsiella pneumoniae ATCC 700603 (KP-MDR), evolved line 10): 256
